Results on 12 compounds are retold here after PMC12335596 (Scientific Reports, 2025).

Each structure is given as a SMILES string.

The target in one experiment is Jack bean urease (Canavalia ensiformis, UniProt P07374). Nature of the experiment: Kinetic study, Lineweaver–Burk plot analysis. The experiment is classed as biochemical. The settings on record: varying concentrations of inhibitor and urea; Vmax decreased, Km increased.
Jack bean urease, sequence (P07374 whole entry, looked up): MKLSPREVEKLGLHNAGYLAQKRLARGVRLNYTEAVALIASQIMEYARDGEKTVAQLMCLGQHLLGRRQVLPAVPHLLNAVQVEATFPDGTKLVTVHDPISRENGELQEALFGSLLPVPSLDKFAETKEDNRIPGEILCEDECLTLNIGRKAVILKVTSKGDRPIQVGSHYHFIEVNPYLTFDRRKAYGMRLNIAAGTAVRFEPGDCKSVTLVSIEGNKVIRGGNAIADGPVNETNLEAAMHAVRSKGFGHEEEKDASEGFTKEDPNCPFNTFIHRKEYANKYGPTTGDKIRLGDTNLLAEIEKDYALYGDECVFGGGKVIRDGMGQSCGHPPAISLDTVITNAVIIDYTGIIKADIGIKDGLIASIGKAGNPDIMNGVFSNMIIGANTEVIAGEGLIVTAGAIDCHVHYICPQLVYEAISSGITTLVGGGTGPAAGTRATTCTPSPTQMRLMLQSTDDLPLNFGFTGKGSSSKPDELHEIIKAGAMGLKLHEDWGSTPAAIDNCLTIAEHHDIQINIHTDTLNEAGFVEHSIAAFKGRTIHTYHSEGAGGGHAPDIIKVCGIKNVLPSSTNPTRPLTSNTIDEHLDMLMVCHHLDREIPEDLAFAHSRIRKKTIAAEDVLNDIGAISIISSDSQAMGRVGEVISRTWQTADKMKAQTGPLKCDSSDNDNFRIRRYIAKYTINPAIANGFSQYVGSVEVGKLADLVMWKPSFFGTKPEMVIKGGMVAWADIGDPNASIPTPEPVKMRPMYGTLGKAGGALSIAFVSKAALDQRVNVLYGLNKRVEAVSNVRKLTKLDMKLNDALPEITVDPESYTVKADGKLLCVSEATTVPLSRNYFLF
Regarding `COc1cc(-c2nc3cc(C(=O)N4CCN(c5ccccc5)CC4)ccc3[nH]2)ccc1OCC(=O)Nc1cccc([N+](=O)[O-])c1` [Compound 9 L, 2-(2-Methoxy-4-(5-(4-phenylpiperazine-1-carbonyl)−1H-benzo[d]imidazol-2-yl)phenoxy)-N-(3-nitrophenyl)acetamide], the “mode of enzyme inhibition” value is recorded as “mixed inhibitor”.

The target in another experiment is urease (JBU; EC 3.5.1.5) (Canavalia ensiformis, UniProt P07374). In words: In vitro urease inhibitory activity. The class given is biochemical, Jack bean.
urease (JBU; EC 3.5.1.5), sequence (P07374 whole entry, looked up): as above
Settings: not given
As a reminder, the IC50 is the point on the concentration scale where inhibition reaches its midpoint. A high value points to weaker potency. In turn, `COc1cc(-c2nc3cc(C(=O)N4CCN(c5ccccc5)CC4)ccc3[nH]2)ccc1OCC(=O)Nc1cccc([N+](=O)[O-])c1` [Compound 9 L, 2-(2-Methoxy-4-(5-(4-phenylpiperazine-1-carbonyl)−1H-benzo[d]imidazol-2-yl)phenoxy)-N-(3-nitrophenyl)acetamide] displayed an IC50 of 150 ± 90 nM. In turn, `COc1cc(-c2nc3cc(C(=O)N4CCN(c5ccccc5)CC4)ccc3[nH]2)ccc1OCC(=O)Nc1ccccc1F` [Compound 9 h, N-(2-Fluorophenyl)−2-(2-methoxy-4-(5-(4-phenylpiperazine-1-carbonyl)−1H-benzo[d]imidazol-2-yl)phenoxy)acetamide] registered an IC50 of 2400 ± 360 nM. Still for that read-out and setting: then `COc1cc(-c2nc3cc(C(=O)N4CCN(c5ccccc5)CC4)ccc3[nH]2)ccc1OCC(=O)Nc1ccc([N+](=O)[O-])cc1` [Compound 9 m, 2-(2-Methoxy-4-(5-(4-phenylpiperazine-1-carbonyl)−1H-benzo[d]imidazol-2-yl)phenoxy)-N-(4-nitrophenyl)acetamide], with 350 ± 340 nM; and `COc1cc(-c2nc3cc(C(=O)N4CCN(c5ccccc5)CC4)ccc3[nH]2)ccc1OCC(=O)Nc1ccccc1` [Compound 9a, 2-(2-Methoxy-4-(5-(4-phenylpiperazine-1-carbonyl)−1H-benzo[d]imidazol-2-yl)phenoxy)-N-phenylacetamide], with 11100 ± 1180 nM.

In turn, `COc1cc(-c2nc3cc(C(=O)N4CCN(c5ccccc5)CC4)ccc3[nH]2)ccc1OCC(=O)Nc1ccccc1C` [Compound 9b, 2-(2-Methoxy-4-(5-(4-phenylpiperazine-1-carbonyl)−1H-benzo[d]imidazol-2-yl)phenoxy)-N-(o-tolyl)acetamide] came in with an IC50 of 820 ± 100 nM. `COc1cc(-c2nc3cc(C(=O)N4CCN(c5ccccc5)CC4)ccc3[nH]2)ccc1OCC(=O)Nc1ccc(C)cc1` [Compound 9d, 2-(2-Methoxy-4-(5-(4-phenylpiperazine-1-carbonyl)−1H-benzo[d]imidazol-2-yl)phenoxy)-N-(p-tolyl)acetamide] returned an IC50 of 12200 ± 1090 nM. In turn, `COc1cc(-c2nc3cc(C(=O)N4CCN(c5ccccc5)CC4)ccc3[nH]2)ccc1OCC(=O)Nc1c(C)cccc1C` [Compound 9e, N-(2,6-Dimethylphenyl)−2-(2-methoxy-4-(5-(4-phenylpiperazine-1-carbonyl)−1H-benzo[d]imidazol-2-yl)phenoxy)acetamide] showed an IC50 of 1260 ± 60 nM.

As for `CCc1ccc(NC(=O)COc2ccc(-c3nc4cc(C(=O)N5CCN(c6ccccc6)CC5)ccc4[nH]3)cc2OC)cc1` [Compound 9f, N-(4-Ethylphenyl)−2-(2-methoxy-4-(5-(4-phenylpiperazine-1-carbonyl)−1H-benzo[d]imidazol-2-yl)phenoxy)acetamide], the IC50 was 510 ± 100 nM. `COc1cc(-c2nc3cc(C(=O)N4CCN(c5ccccc5)CC4)ccc3[nH]2)ccc1OCC(=O)Nc1ccccc1Cl` [Compound 9i, N-(2-Chlorophenyl)−2-(2-methoxy-4-(5-(4-phenylpiperazine-1-carbonyl)−1H-benzo[d]imidazol-2-yl)phenoxy)acetamide]: the IC50 was 9240 ± 370 nM.

As for `COc1cc(-c2nc3cc(C(=O)N4CCN(c5ccccc5)CC4)ccc3[nH]2)ccc1OCC(=O)Nc1cccc(Cl)c1` [Compound 9j, N-(3-Chlorophenyl)−2-(2-methoxy-4-(5-(4-phenylpiperazine-1-carbonyl)−1H-benzo[d]imidazol-2-yl)phenoxy)acetamide], the IC50 amounted to 2720 ± 70 nM. Same read-out and setting: then `COc1cc(-c2nc3cc(C(=O)N4CCN(c5ccccc5)CC4)ccc3[nH]2)ccc1OCC(=O)Nc1ccc(Cl)cc1` [Compound 9k, N-(4-Chlorophenyl)−2-(2-methoxy-4-(5-(4-phenylpiperazine-1-carbonyl)−1H-benzo[d]imidazol-2-yl)phenoxy)acetamide], with 1780 ± 240 nM.

The same experiment, now with this note: ratio of IC50 values vs compound 9d.
Take `COc1ccc(NC(=O)COc2ccc(-c3nc4cc(C(=O)N5CCN(c6ccccc6)CC5)ccc4[nH]3)cc2OC)cc1` [Compound 9 g, 2-(2-Methoxy-4-(5-(4-phenylpiperazine-1-carbonyl)−1H-benzo[d]imidazol-2-yl)phenoxy)-N-(4-methoxyphenyl)acetamide]: the “fold more potent than 9d” value is “seven-fold”.

Still in this experiment, the particulars now being: ratio of IC50 values, standard thiourea vs compound.
In the case of `COc1cc(-c2nc3cc(C(=O)N4CCN(c5ccccc5)CC4)ccc3[nH]2)ccc1OCC(=O)Nc1ccccc1` [Compound 9a, 2-(2-Methoxy-4-(5-(4-phenylpiperazine-1-carbonyl)−1H-benzo[d]imidazol-2-yl)phenoxy)-N-phenylacetamide], the “fold more potent than standard thiourea (X)” value is listed as “two-fold”.
